Test results taken from patent publication US20120053148A1, “INHIBITORS OF HEPATITIS C VIRUS” (GILEAD SCIENCES, INC., priority 2010, published 2012).

tested on: HCV Replicon IB; experiment: HCV replicon assay in Huh-7 cells, genotype 1b (Rluc luciferase readout); format: cell-based, hepatitis C virus; conditions: HCV1B replicon, Huh-7 cells, 3 days; read-out: EC50_HCV1B_

Compound | EC50
Cc1cc(-c2nnc(NC3CCC(O)(CF)C3)o2)nc2c(C(C)(C)C)cc(OCC(F)(F)F)cc12 (stereo not drawn) [Compound 490] | 50 nM

same assay, conditions: Hepatitis C virus, Huh-7, 72 h, HCV1B replicon, Huh-7 cells, 3 days; read-out: EC50_HCV1B_

Compound | EC50
Cc1cc(-c2nnc(N(CO)CC3OCCO3)o2)nc2c(C(C)(C)C)cc(C3CC3)cc12 [Compound 404] | 2.18 nM
Cc1cc(-c2nnc(N[C@@H]3CCOC3)o2)nc2c(C(C)(C)C)cc(C3CC3)cc12 [Compound 405] | 5.25 nM
Cc1cc(-c2nnc(NCCC(C)(C)O)o2)nc2c(C(C)(C)C)cc(C3CC3)cc12 [Compound 409] | 9.43 nM
Cc1cc(-c2nnc(NCC3OC[C@H](C)O3)o2)nc2c(C(C)(C)C)cc(C3CC3)cc12 (stereo partly drawn) [Compound 412] | 36.2 nM
Cc1cc(-c2nnc(NCC3O[C@H]4COC[C@H]4O3)o2)nc2c(C(C)(C)C)cc(C3CC3)cc12 (stereo partly drawn) [Compound 413] | 311 nM
Cc1cc(-c2nnc(N[C@H]3CC[C@@H](O)C3)o2)nc2c(C(C)(C)C)cc(C3CC3)cc12 [Compound 414] | 1.74 nM
Cc1cc(-c2nnc(NCC3COC(C)(C)O3)o2)nc2c(C(C)(C)C)cc(C3CC3)cc12 (stereo not drawn) [Compound 415] | 85 nM
Cc1cc(-c2nnc(NC[C@H]3C[C@@H](O)C3)o2)nc2c(C(C)(C)C)cc(C3CC3)cc12 [Compound 417] | 6.11 nM
Cc1cc(-c2nnc(NC[C@H]3C[C@H](O)C3)o2)nc2c(C(C)(C)C)cc(C3CC3)cc12 [Compound 418] | 4.58 nM
Cc1cc(-c2nnc(NCC3CNC(=O)O3)o2)nc2c(C(C)(C)C)cc(C3CC3)cc12 (stereo not drawn) [Compound 419] | 43.9 nM
Cc1cc(-c2nnc(NC3CC(O)C3)o2)nc2c(C(C)(C)C)cc(C3CC3)cc12 (stereo not drawn) [Compound 420] | 3.1 nM
Cc1cc(-c2nnc(N[C@H]3C[C@@H](O)C3)o2)nc2c(C(C)(C)C)cc(C3CC3)cc12 [Compound 421] | 3.24 nM
Cc1cc(-c2nnc(N[C@H]3C[C@H](O)C3)o2)nc2c(C(C)(C)C)cc(C3CC3)cc12 [Compound 422] | 5.55 nM
Cc1cc(-c2nnc(N[C@H]3C[C@@](C)(O)C3)o2)nc2c(C(C)(C)C)cc(C3CC3)cc12 [Compound 423] | 1.35 nM
Cc1cc(C(=O)NCC2COC2)nc2c(C(C)(C)C)cc(C3CC3)cc12 [Compound 424] | 488 nM
CO[C@H]1CN[C@H](CNC(=O)c2cc(C)c3cc(C4CC4)cc(C(C)(C)C)c3n2)C1 [Compound 425] | 12.4 nM
Cc1cc(C(=O)NC[C@@H]2CS(=O)(=O)CCN2)nc2c(C(C)(C)C)cc(C3CC3)cc12 [Compound 426] | 6.27 nM
Cc1cc(C(=O)NC[C@@H]2CSCN2)nc2c(C(C)(C)C)cc(C3CC3)cc12 [Compound 427] | 7.44 nM
Cc1cc(C(=O)NC[C@@H]2CC3(CCN2)OCCO3)nc2c(C(C)(C)C)cc(C3CC3)cc12 [Compound 428] | 834 nM
Cc1cc(C(=O)NC[C@@H]2C[C@](C)(O)CN2)nc2c(C(C)(C)C)cc(C3CC3)cc12 [Compound 429] | 294 nM
CC[C@@]1(O)CN[C@H](CNC(=O)c2cc(C)c3cc(C4CC4)cc(C(C)(C)C)c3n2)C1 [Compound 430] | 1450 nM
Cc1cc(C(=O)NC[C@@H]2CC3(CN2)OCCO3)nc2c(C(C)(C)C)cc(C3CC3)cc12 [Compound 431] | 8.04 nM
CO[C@H]1CN[C@H](CNC(=O)c2nc(N)c3cc(C4CC4)cc(C(C)(C)C)c3n2)C1 [Compound 432] | 83.3 nM

Compound | EC50
CC(C)(C)c1cc(C2CC2)cc2c(N)nc(C(=O)NCc3ncccn3)nc12 [Compound 433] | 1.19 nM
Nc1nc(C(=O)NCc2cnccn2)nc2c(C(F)(F)F)cc(-c3ccccc3)cc12 [Compound 435] | 7.84 nM
CO[C@@H]1CN[C@H](CNC(=O)c2nc(N)c3cc(-c4ccccc4)cc(C(F)(F)F)c3n2)C1 [Compound 436] | 589 nM
Cc1cc(C(=O)NCC2CC(F)(F)CN2)nc2c(OC(F)(F)F)cc(C3CC3)cc12 (stereo not drawn) [Compound 437] | 20.2 nM
CO[C@@H]1CNC(CNC(=O)c2cc(C)c3cc(C4CC4)cc(OC(F)(F)F)c3n2)C1 (stereo partly drawn) [Compound 438] | 46 nM
Cc1cc(C(=O)Nc2cn[nH]c2)nc2c(OC(F)(F)F)cc(C3CC3)cc12 [Compound 439] | 1160 nM
Cc1cc(C(=O)NCc2ncccn2)nc2c(OC(F)(F)F)cc(C3CC3)cc12 [Compound 440] | 10.2 nM
Cc1cc(C(=O)NC[C@@H]2CS(=O)(=O)CCN2)nc2c(OC(F)(F)F)cc(C3CC3)cc12 [Compound 441] | 12.4 nM
Cc1cc(C(=O)NC[C@@H]2CC3(CN2)OCCO3)nc2c(OC(F)(F)F)cc(C3CC3)cc12 [Compound 443] | 18.8 nM
Cc1cc(-c2nnc(NCC3OCCO3)o2)nc2c(OC(F)(F)F)cc(C3CC3)cc12 [Compound 444] | 5.88 nM
Cc1cc(OC(F)(F)F)c2nc(C(=O)NCc3cnccn3)cc(C)c2c1 [Compound 445] | 257 nM
Cc1cc(OC(F)(F)F)c2nc(C(=O)NCc3ncccn3)cc(C)c2c1 [Compound 446] | 523 nM
Cc1cc(C(=O)NCc2ncccn2)nc2c(OC(F)F)cc(OC(F)F)cc12 [Compound 447] | 37.5 nM
Cc1cc(-c2nnc(NCC3OCCO3)o2)nc2c(C(C)(C)C)cc(OCC(F)(F)F)cc12 [Compound 448] | 1.57 nM
Cc1cc(-c2nnc(NCCC(C)(C)O)o2)nc2c(C(C)(C)C)cc(OCC(F)(F)F)cc12 [Compound 449] | 11.3 nM
Cc1cc(-c2nnc(N[C@@H]3CCOC3)o2)nc2c(C(C)(C)C)cc(OCC(F)(F)F)cc12 [Compound 450] | 3.15 nM
Cc1cc(-c2nnc(N[C@H]3CCOC3)o2)nc2c(C(C)(C)C)cc(OCC(F)(F)F)cc12 [Compound 451] | 2.45 nM
Cc1cc(-c2nnc(NCc3ccn[nH]3)o2)nc2c(C(C)(C)C)cc(OCC(F)(F)F)cc12 [Compound 452] | 19.6 nM
Cc1cc(-c2nnc(NCC(=O)N(C)C)o2)nc2c(C(C)(C)C)cc(OCC(F)(F)F)cc12 [Compound 453] | 14.9 nM
Cc1cc(-c2nnc(NCC3(C)OCCO3)o2)nc2c(C(C)(C)C)cc(OCC(F)(F)F)cc12 [Compound 454] | 2.27 nM
Cc1cc(-c2nnc(NCC[C@@H](C)O)o2)nc2c(C(C)(C)C)cc(OCC(F)(F)F)cc12 [Compound 455] | 3.05 nM
Cc1cc(-c2nnc(NCC[C@H](C)O)o2)nc2c(C(C)(C)C)cc(OCC(F)(F)F)cc12 [Compound 456] | 3.3 nM
Cc1cc(-c2nnc(Nc3cccnc3)o2)nc2c(C(C)(C)C)cc(OCC(F)(F)F)cc12 [Compound 457] | 4.1 nM

Compound | EC50
Cc1cc(-c2nnc(Nc3ccccn3)o2)nc2c(C(C)(C)C)cc(OCC(F)(F)F)cc12 [Compound 458] | 0.83 nM
Cc1cc(-c2nnc(NCC(F)(F)CO)o2)nc2c(C(C)(C)C)cc(OCC(F)(F)F)cc12 [Compound 459] | 4.32 nM
Cc1cc(-c2nnc(NC3CC(O)C3)o2)nc2c(C(C)(C)C)cc(OCC(F)(F)F)cc12 (stereo not drawn) [Compound 461] | 1.38 nM
Cc1cc(-c2nnc(N[C@H]3C[C@@H](O)C3)o2)nc2c(C(C)(C)C)cc(OCC(F)(F)F)cc12 [Compound 462] | 1.54 nM
Cc1cc(-c2nnc(N[C@H]3C[C@H](O)C3)o2)nc2c(C(C)(C)C)cc(OCC(F)(F)F)cc12 [Compound 463] | 3.76 nM
Cc1cc(-c2nnc(NC3CC(C)(O)C3)o2)nc2c(C(C)(C)C)cc(OCC(F)(F)F)cc12 (stereo not drawn) [Compound 466] | 0.88 nM
Cc1cc(-c2nnc(N[C@H]3C[C@](O)(CF)C3)o2)nc2c(C(C)(C)C)cc(OCC(F)(F)F)cc12 [Compound 467] | 0.63 nM
Cc1cc(-c2nnc(N[C@H]3C[C@](O)(C(F)F)C3)o2)nc2c(C(C)(C)C)cc(OCC(F)(F)F)cc12 [Compound 468] | 0.36 nM
Cc1cc(-c2nnc(NC3CC(O)(C(F)(F)F)C3)o2)nc2c(C(C)(C)C)cc(OCC(F)(F)F)cc12 (stereo not drawn) [Compound 469] | 115 nM
CC[C@]1(O)C[C@@H](Nc2nnc(-c3cc(C)c4cc(OCC(F)(F)F)cc(C(C)(C)C)c4n3)o2)C1 [Compound 478] | 1.48 nM
Cc1cc(-c2nnc(NCC3OCCS3)o2)nc2c(C(C)(C)C)cc(OCC(F)(F)F)cc12 (stereo not drawn) [Compound 479] | 1.14 nM
Cc1cc(-c2nnc(N[C@H]3C[C@@H](OP(=O)(O)O)C3)o2)nc2c(C(C)(C)C)cc(OCC(F)(F)F)cc12 [Compound 480] | 1.24 nM
Cc1cc(-c2nnc(N[C@H]3C[C@](O)(C(F)S(=O)(=O)c4ccccc4)C3)o2)nc2c(C(C)(C)C)cc(OCC(F)(F)F)cc12 (stereo partly drawn) [Compound 481] | 2880 nM
Cc1cc(-c2nnc(N[C@H]3C[C@](O)(CCF)C3)o2)nc2c(C(C)(C)C)cc(OCC(F)(F)F)cc12 [Compound 482] | 2.96 nM
Cc1cc(-c2nnc(NCC3OCCS3(=O)=O)o2)nc2c(C(C)(C)C)cc(OCC(F)(F)F)cc12 (stereo not drawn) [Compound 483] | 1.72 nM
Cc1cc(-c2nnc(NCC3S(=O)(=O)CCS3(=O)=O)o2)nc2c(C(C)(C)C)cc(OCC(F)(F)F)cc12 [Compound 484] | 2190 nM
Cc1cc(-c2nnc(NCC3COC3)o2)nc2c(C(C)(C)C)cc(OCC(F)(F)F)cc12 [Compound 485] | 1050 nM
Cc1cc(-c2nnc(NCC3(C)COC3)o2)nc2c(C(C)(C)C)cc(OCC(F)(F)F)cc12 [Compound 486] | 1850 nM
Cc1cc(-c2nnc(NC3COC3)o2)nc2c(C(C)(C)C)cc(OCC(F)(F)F)cc12 [Compound 487] | 41.5 nM
Cc1cc(-c2nnc(NC3CCOCC3)o2)nc2c(C(C)(C)C)cc(OCC(F)(F)F)cc12 [Compound 488] | 6.82 nM
Cc1cc(-c2nnc(NC3CCC(O)(CF)C3)o2)nc2c(C(C)(C)C)cc(OCC(F)(F)F)cc12 (stereo not drawn) [Compound 489] | 26.7 nM
Cc1cc(-c2nnc(N[C@H]3CC[C@](O)(CF)C3)o2)nc2c(C(C)(C)C)cc(OCC(F)(F)F)cc12 [Compound 491] | 0.57 nM
Cc1cc(-c2nnc(N[C@H]3CC[C@@](O)(CF)C3)o2)nc2c(C(C)(C)C)cc(OCC(F)(F)F)cc12 [Compound 492] | 19.3 nM

same assay, conditions: Hepatitis C virus, Huh-7, 72 h; read-out: EC50_HCV1B_

Compound | EC50
CCOP(=O)(CNc1nnc(-c2cc(C)c3cc(OCC(F)(F)F)cc(C(C)(C)C)c3n2)o1)OCC [Compound 460] | 388 nM
Cc1cc(-c2nnc(N[C@H]3C[C@@](CF)(OP(=O)(O)O)C3)o2)nc2c(C(C)(C)C)cc(OCC(F)(F)F)cc12 [Compound 470] | 0.72 nM
